Measured values as given in patent publication US11840731B2, “Method for diagnosing and treating subjects having single nucleotide polymorphisms in chromosome 2, 2:107,510,000-107,540,000 locus” (NEURIM PHARMACEUTICALS (1991) LTD., priority 2021, dated 2023).
Marks after values point to notes of the source that are not given here.

Columns and labels:
[1] = test system: patients with early symptomatic Alzheimer's disease; assay: computerized Neuropsychological Test Battery (cNTB), randomized placebo controlled study; format: in vivo, human; design: key to cNTB Improvement: ns = non-significant effect; deter = deterioration compared to placebo; conditions: for cNTB: 5, 20 and 50 mg daily for 26 weeks, change from baseline
Description: DNA extraction and SNP genotyping were performed as follows: For 107 patients, whole blood was collected at the time of enrollment, and genomic DNA was extracted from peripheral lymphocytes using a commercial kit. Variant genotyping of a combined Whole Genome and Whole Exome sequencing, was performed. The detection of variants associated with the response of the treatment was performed through a genome wide association study (GWAS) analysis (which is a known case-control paradigm). […] The general case-control allelic test was performed through a Cochran-Armitage trend test. […] The stratification was assessed by a complete-linkage hierarchical clustering using the pairwise population concordance as a constraint. The SNP calling was done on the aligned BAM files using DRAGEN: […]

[2] = test system: patients with early symptomatic Alzheimer's disease; assay: Alzheimer's Disease Assessment Scale cognitive subscale (ADAS-Cog14), randomized placebo controlled study; format: in vivo, human; design: key to ADAS-Cog14 Improvement: ns = non-significant effect; deter = deterioration compared to placebo
[3] = test system: patients with early symptomatic Alzheimer's disease; assay: neuropsychiatric inventory (NPI), randomized placebo controlled study; format: in vivo, human; conditions: for NPI Improvement: 20 mg daily for 26 weeks
[4] = test system: patients with early symptomatic Alzheimer's disease; assay: sleep quality index (PSQI), randomized placebo controlled study; format: in vivo, human; conditions: non-carriers (N = 23); 20 mg daily for 26 weeks
5-HT-1b receptor = biological target: T1, 5-HT-1b receptor (Rattus norvegicus, UniProt P28564); assay: receptor binding assay, radioligand 125I CYP, rat cerebral cortex; conditions: 5-HT1B
T1 construct: from tissue; host or cells: rat cerebral cortex
T1 sequence (P28564 whole entry): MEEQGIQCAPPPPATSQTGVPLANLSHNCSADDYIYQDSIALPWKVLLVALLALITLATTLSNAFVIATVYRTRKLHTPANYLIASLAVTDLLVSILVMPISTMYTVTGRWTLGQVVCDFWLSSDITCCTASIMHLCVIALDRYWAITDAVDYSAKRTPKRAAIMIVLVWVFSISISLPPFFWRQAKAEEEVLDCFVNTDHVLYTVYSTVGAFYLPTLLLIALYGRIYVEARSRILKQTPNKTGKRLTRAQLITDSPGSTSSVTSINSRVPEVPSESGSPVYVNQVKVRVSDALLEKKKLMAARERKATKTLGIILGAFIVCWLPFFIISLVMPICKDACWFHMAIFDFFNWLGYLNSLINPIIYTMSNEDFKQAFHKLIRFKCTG
Description: (§1) For receptor binding assays, stably expressing 5-HT1a, 1b, 1d and 2c receptors cells (HEK-293, rat cerebral cortex, CHO and HEK-293, respectively) were incubated with 0.3 or 1 nM of their respective radioligand (^3H-OH-DPAT, ^125I CYP, ^3H serotonin and ^3H-mesulergine) alone or in the presence of 1 nM to 10 μM of piromelatine. The bound radioligand was assessed. Non-specific binding was evaluated under the reaction contained with 8-OH-PTA, serotonin and RS-10221 (8-[5-(2,4-Dimethoxy-5-(4-trifluoromethylphenylsulphonamido)phenyl-5-oxopentyl]-1,3,8-triazaspiro[4.5]decane-2,4-dione hydrochloride).

5-HT-2a receptor = 5-HT-2a receptor (Homo sapiens, UniProt P28223); assay: receptor binding assay; conditions: 5-HT2A
Chain of 5-HT-2a receptor (P28223 whole entry): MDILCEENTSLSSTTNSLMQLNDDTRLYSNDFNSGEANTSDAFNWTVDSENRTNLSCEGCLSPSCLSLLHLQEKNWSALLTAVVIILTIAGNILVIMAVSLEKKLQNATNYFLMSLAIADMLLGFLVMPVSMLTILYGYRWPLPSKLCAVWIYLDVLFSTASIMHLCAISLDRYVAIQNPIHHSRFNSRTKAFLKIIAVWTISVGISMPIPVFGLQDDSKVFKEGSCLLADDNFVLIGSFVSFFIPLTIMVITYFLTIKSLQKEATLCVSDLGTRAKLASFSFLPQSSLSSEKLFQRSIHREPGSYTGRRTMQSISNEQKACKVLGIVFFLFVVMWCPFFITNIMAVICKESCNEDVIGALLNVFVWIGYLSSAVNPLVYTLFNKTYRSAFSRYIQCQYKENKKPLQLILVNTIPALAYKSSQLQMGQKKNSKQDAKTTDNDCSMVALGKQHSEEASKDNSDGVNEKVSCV

5-HT-2b receptor = 5-HT-2b receptor (Homo sapiens, UniProt P41595); assay: receptor binding assay; conditions: 5-HT2B
Chain of 5-HT-2b receptor (P41595 whole entry): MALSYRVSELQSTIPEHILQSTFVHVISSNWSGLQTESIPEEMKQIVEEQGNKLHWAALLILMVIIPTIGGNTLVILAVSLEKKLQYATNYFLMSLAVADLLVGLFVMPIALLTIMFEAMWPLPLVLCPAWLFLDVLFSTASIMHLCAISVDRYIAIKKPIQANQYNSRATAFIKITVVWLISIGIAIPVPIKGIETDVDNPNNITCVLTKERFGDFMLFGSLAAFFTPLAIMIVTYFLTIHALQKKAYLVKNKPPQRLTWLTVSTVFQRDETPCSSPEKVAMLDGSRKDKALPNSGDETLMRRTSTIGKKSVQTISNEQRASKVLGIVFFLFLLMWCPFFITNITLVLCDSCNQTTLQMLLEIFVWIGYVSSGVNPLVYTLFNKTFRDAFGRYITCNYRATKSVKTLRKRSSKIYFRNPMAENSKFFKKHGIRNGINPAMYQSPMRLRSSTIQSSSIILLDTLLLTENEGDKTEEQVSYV

5-HT-2c receptor = biological target: T2, 5-HT-2c receptor (Homo sapiens, UniProt P28335); assay: receptor binding assay, radioligand 3H-mesulergine, HEK-293 cells; conditions: 5-HT2C
T2 construct: expressed in transfected cells; host or cells: HEK-293
T2 sequence (P28335 33-458): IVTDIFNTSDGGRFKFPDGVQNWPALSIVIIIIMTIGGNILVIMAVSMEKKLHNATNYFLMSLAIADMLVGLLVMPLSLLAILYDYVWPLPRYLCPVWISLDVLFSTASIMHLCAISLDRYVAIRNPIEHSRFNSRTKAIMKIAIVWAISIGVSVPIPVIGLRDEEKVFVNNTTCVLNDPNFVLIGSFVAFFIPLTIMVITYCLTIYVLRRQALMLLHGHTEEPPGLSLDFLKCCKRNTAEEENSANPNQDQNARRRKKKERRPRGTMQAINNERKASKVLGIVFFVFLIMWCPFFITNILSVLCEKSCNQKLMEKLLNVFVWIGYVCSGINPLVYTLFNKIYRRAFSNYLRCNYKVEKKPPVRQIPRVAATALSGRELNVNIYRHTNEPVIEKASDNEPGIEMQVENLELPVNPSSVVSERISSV
Description: as §1

5-HT1a [5] = biological target: T3, 5-HT1a (Homo sapiens, UniProt P08908); assay: functional assay, HTRF (cAMP or IP1); format: cell-based
T3 sequence (P08908 1-422): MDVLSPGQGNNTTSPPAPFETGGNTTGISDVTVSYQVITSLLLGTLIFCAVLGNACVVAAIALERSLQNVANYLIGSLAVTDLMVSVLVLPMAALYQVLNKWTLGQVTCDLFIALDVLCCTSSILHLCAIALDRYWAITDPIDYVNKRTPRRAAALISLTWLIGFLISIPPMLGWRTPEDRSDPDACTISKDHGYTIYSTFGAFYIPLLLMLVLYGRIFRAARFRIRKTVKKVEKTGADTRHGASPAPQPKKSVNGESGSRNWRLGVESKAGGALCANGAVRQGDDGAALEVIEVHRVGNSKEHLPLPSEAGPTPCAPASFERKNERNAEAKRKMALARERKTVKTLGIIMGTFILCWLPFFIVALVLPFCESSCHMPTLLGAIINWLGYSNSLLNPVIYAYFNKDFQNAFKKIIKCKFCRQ
From the text: (§2) For the functional assay, Homogeneous Time Resolved Fluorescence (HTRF) was used to measure cAMP or IP1 as products of the functional agonist or antagonist binding of 5-HT1a, 2a,2b, 2c, 4e, 6, 7 to their respective ligand (8-OG-DPAT or serotonin). Cellular dielectric spectroscopy was used to measure impedance as the product of the functional agonist or antagonist binding of 5HT1b and determine their respective ligand (serotonin).

5-HT1d = assay: functional assay; format: cell-based; conditions: 5-H 1d
5HT1b = 5HT1b (Homo sapiens, UniProt P28222); assay: functional assay, cellular dielectric spectroscopy (impedance); format: cell-based
Chain of 5HT1b (P28222 whole entry, species assumed): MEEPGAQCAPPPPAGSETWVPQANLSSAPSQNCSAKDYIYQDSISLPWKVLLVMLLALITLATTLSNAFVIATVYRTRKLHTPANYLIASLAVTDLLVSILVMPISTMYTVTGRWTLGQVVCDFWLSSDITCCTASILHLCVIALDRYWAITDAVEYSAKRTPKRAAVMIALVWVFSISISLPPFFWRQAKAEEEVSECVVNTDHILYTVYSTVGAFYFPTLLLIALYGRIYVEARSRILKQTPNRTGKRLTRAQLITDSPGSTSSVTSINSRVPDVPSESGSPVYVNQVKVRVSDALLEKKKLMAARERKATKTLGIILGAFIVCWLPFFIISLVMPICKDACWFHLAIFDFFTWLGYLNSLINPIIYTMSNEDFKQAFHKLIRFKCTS
From the text: as §2

[6] = test system: 60 different ion channels and receptors of different neurotransmitters and hormones; assay: full profile of binding parameters, 60 receptor assays; conditions: 10 μM; none of the 60 receptor assays significant
Description: A full profile of binding parameters to an additional 60 different ion channels and receptors of different neurotransmitters and hormones was performed (data not shown because none of the 60 receptor assays yielded a significant (>50%) inhibition by 10 μM of piromelatine).

[7] = test system: patients with early symptomatic Alzheimer's disease; assay: computerized Neuropsychological Test Battery (cNTB), randomized placebo controlled study; format: in vivo, human
5-HT1a [8] = biological target: T3, 5-HT1a; assay: receptor binding assay, radioligand 3H-OH-DPAT, HEK-293 cells; design: expressed in transfected cells; host or cells: HEK-293; conditions: 5-HT1A
Description: as §1

[9] = locus polymorphism carriers, 5, 20 and 50 mg, 26 weeks, N = 19, vs placebo
[10] = locus polymorphism non-carriers, 5, 20 and 50 mg, 26 weeks, N = 59, vs placebo
[11] = whole study, n=352, 5, 20, and 50 mg daily for 6 months

- affinity in words (5-HT-1b receptor): low affinity
- affinity in words (5-HT-2a receptor): low affinity
- affinity in words (5-HT-2b receptor): low affinity
- affinity in words (5-HT-2c receptor): low affinity
- agonist activity (5-HT1a [5]): moderate agonist activity
- agonist activity (5HT1b): Low agonist activity
- inhibition [6]: ≤ 50%
- affinity in words (5-HT1a [8]): low affinity
SMILES: COc1ccc2[nH]cc(CCNC(=O)c3cc(=O)cco3)c2c1 [piromelatine, N-(2-(5-methoxy-1H-indol-3-yl)ethyl)-4-oxo-4H-pyran-2-carboxamide]
- cNTB Improvement ([1]; carriers (N = 12), 20 mg daily for 26 weeks): yes
- cNTB attention domain composite score ([1]; carriers, 5 mg): improved
- cNTB episodic memory domain composite score ([1]; carriers, 5 mg): improved
- cNTB episodic memory domain composite score ([1]; carriers, 20 mg): improved
- cNTB ([1]; locus polymorphism carriers, N = 19): 0.38*
- cNTB Improvement [1, 9]: yes
- cNTB ([1]; locus polymorphism non-carriers, N = 59): −0.04
- cNTB Improvement [1, 10]: ns
- ADAS Cog14, Cohen's d vs placebo > 0.2 ([2]; carriers, 5 mg daily for 26 weeks): improvement
- ADAS-Cog14 ([2]; locus polymorphism carriers, 5, 20 and 50 mg daily for 26 weeks, N = 19): 0.63*
- ADAS-Cog14 Improvement [2, 9]: deter
- ADAS-Cog14 Improvement [2, 10]: yes
- ADAS-Cog14 Improvement ([2]; non-carriers (N = 23), 20 mg daily for 26 weeks): yes
- ADAS Cog14, Cohen's d vs placebo > 0.20 ([2]; non-carriers, 5 mg daily for 26 weeks): no improvement
- ADAS-Cog14, drug vs placebo [2, 11]: no statistically significant differences
- NPI Improvement ([3]; carriers (N = 12)): yes
- NPI aberrant movements ([3]; carriers, 20 mg): improvement
- NPI Improvement ([3]; non-carriers (N = 23)): yes
- PSQI Improvement [4]: yes
- agonist activity (5-HT1d): moderate agonist activity
- cNTB attention domain composite score ([7]; carriers, 20 mg): improved
- global composite score of the cNTB, drug vs placebo [7, 11]: no statistically significant differences
